How the values were obtained:
Type in all cases: in vivo, human
boys with DMD = test: VBP15-004 efficacy at Week 48; conditions: for 6MWT, change from baseline / NSAA, change from baseline / TTRW velocity, change from baseline / TTSTAND velocity, change from baseline: 6 mg/kg/day
Experimental: (§1) Subjects already on vamorolone continued on the allocated dose level. Efficacy at Week 48 was assessed by Time to Stand ([…]) velocity, 6-Minute Walk Test (6MWT), Time to Run/Walk 10 meters (TTRW) velocity, and North Star Ambulatory Assessment (NSAA). […] In contrast, the persistence of effects with vamorolone 2 mg/kg/day was less pronounced for some parameters. The safety profile was consistent for subjects who continued on the same dose of vamorolone throughout the study, with no increase in frequency or severity of adverse events being observed over time. […] In addition, vamorolone treatment at both doses reversed the growth impairment seen during prednisone treatment and was associated with fewer adverse events, including those associated with corticosteroid use.

[1] = VBP15-003 24-week dose-finding extension, safety
Experimental: (§2) Vamorolone clinical studies have been conducted in adult male volunteers and boys with DMD, a disorder in which skeletal muscle is in a chronic inflammatory state. Two consecutive open-label dose-ranging studies in 48 DMD patients aged 4 to <7 years (corticosteroid-naïve) were conducted (Phase IIa, VBP15-002; Phase IIa, VBP15-003). Doses were tested over a 24-fold dose range (0.25, 0.75, 2.0, and 6.0 mg/kg/day), with 12 participants per group. The first multiple ascending dose (MAD) cohort trial-tested pharmacokinetics (PK) and safety for 2 weeks of drug dosing followed by a 2-week washout (VBP15-002). […] All DMD participants completed the MAD study and then continued on the same dose for a 24-week dose-finding (efficacy and safety) extension study (VBP15-003).
VBP15-002 (Phase IIa; two weeks on the drug, two weeks off drug) enrolled 48 corticosteroid-naïve participants with DMD, and all 48 participants completed the study and enrolled into VBP15-003 (Phase IIa extension; 24-week treatment). Forty-six of 48 participants completed the VBP15-003 study (2 participants withdrew from VBP15-003 for reasons unrelated to the study drug). In addition, all participants (46/46) opted to enroll in the 24-month long-term extension study, VBP15-LTE.
Only participants completing VBP15-002 and VBP15-003 were eligible to enroll in VBP15-LTE. Participants received vamorolone at 1 of 4 dose levels (0.25, 0.75, 2.0, or 6.0 mg/kg/day) and at the same dose level in both the 4-week VBP15-002 trial and the 24-week VBP15-003 trial. If participants, their families, and their physicians wished to continue vamorolone treatment upon exiting the VBP15-003 trial, they were offered participation in the 24-month long-term extension (VBP15-LTE). The last visit of the VBP15-003 trial was commensurate with the first visit of the VBP15-LTE trial. In all studies, study medication was provided as 4% flavored liquid suspension and was dosed according to body weight and given once daily in the morning with food.
(§3) Study visits took place quarterly, including assessment of clinical laboratory results, vital signs, and AEs. All AEs were coded using the Medical Dictionary for Regulatory Activities (MedDRA version 19.0) system for reporting (preferred term and system organ class). Clinical efficacy assessments were performed at baseline of the VBP15-002 study, at six months (end of VBP15-003 study), and the 12-month midpoint visit of the VBP15-LTE study.

[2] = VBP15-004 adverse events, Treatment Period 2 / cross-over
Experimental: as §1

[3] = VBP15-004 height and BMI z-scores, 24 to 48 weeks; conditions: for change in height Z scores: baseline to Week 24
Experimental: The second period of 24 weeks, where all participants receive vamorolone treatment on either of the two dose levels, will continue to capture additional longer-term safety and tolerability data.
Subjects already on vamorolone continued on the allocated dose level. Efficacy at Week 48 was assessed by Time to Stand (TTSTAND) velocity, 6-Minute Walk Test (6MWT), Time to Run/Walk 10 meters (TTRW) velocity, and North Star Ambulatory Assessment (NSAA). […] In contrast, the persistence of effects with vamorolone 2 mg/kg/day was less pronounced for some parameters. The safety profile was consistent for subjects who continued on the same dose of vamorolone throughout the study, with no increase in frequency or severity of adverse events being observed over time. […] In addition, vamorolone treatment at both doses reversed the growth impairment seen during prednisone treatment and was associated with fewer adverse events, including those associated with corticosteroid use.

[4] = VBP15-002 Phase IIa multiple ascending dose PK and safety
Experimental: as §2
Three consecutive clinical trials of vamorolone treatment of DMD were conducted by CINRG (VBP15-002 [NCT02760264]; VBP15-003 [NCT02760277]; VBP15-LTE [NCT03038399]). A total of 48 participants (ages 4 to <7 years) were initially enrolled into VBP15-002, with trial participants completing month 12 of the 24-month VBP15-LTE study.
VBP15-002 (Phase IIa; two weeks on the drug, two weeks off drug) enrolled 48 corticosteroid-naïve participants with DMD, and all 48 participants completed the study and enrolled into VBP15-003 (Phase IIa extension; 24-week treatment). […]

[5] = Physician-reported adverse events, VBP15-LTE/DSUR vs published corticosteroid studies
Experimental: as §3
The incidences of physician-reported AEs typically for corticosteroid treatment were determined for participants that had been treated with vamorolone 6.0 mg/kg/day (for any duration), taken from the March 2019 Data Safety Update Report (DSUR) (pharmacovigilance report). Incidence rates of Cushingoid features, weight gain, hirsutism, and behavior change were studied (Table 8).

[6] = Treatment Period 2 after switch from prednisone to vamorolone 6 mg/kg/day
[7] = after switch from prednisone to vamorolone 6 mg/kg/day
[8] = 6.0 mg/kg/day vamorolone, any duration, DSUR Mar. 2019

In the case of `C[C@@H]1C[C@H]2[C@@H]3CCC4=CC(=O)C=C[C@]4(C)C3=CC[C@]2(C)[C@@]1(O)C(=O)CO` [Vamorolone, 17α,21-dihydroxy-16α-methylpregna-1,4,9(11)-triene-3,20-dione], the “6MWT, change from baseline” value (boys with DMD; Week 24) was 37 meters, the “NSAA, change from baseline” value (boys with DMD; Week 24) was 3.4 points and the “TTRW velocity, change from baseline” value (boys with DMD; Week 24) was 0.29 m/s. For the same molecule, the “TTSTAND velocity, change from baseline” value (boys with DMD; Week 24) was 0.052 rises/s, the “6MWT, change from baseline” value (boys with DMD; Week 48) was 48 meters and the “NSAA, change from baseline” value (boys with DMD; Week 48) was 3.5 points. The “TTRW velocity, change from baseline” value (boys with DMD; Week 48) was 0.23 m/s, the “TTSTAND velocity, change from baseline” value (boys with DMD; Week 48) was 0.045 rises/s and the 6MWT distance (boys with DMD; [6]) was 408 meters. The NSAA (boys with DMD; [6]) was 26.2 points, the TTRW velocity (boys with DMD; [6]) was 2.20 m/s and the TTSTAND velocity (boys with DMD; [6]) was 0.27 rises/s. For the same molecule, the “TEAE abnormal behavior, participants” value ([1]; 2.0-mg/kg/day group) was “one participant”, the “TEAE Cushingoid habitus, participants” value ([1]; 6.0-mg/kg/day group) was “one participant each” and the “TEAE abnormal blood cortisol level, participants” value ([1]; 6.0-mg/kg/day group) was “one participant each”. For the same molecule, the “TEAE anxiety, participants” value ([1]; 6.0-mg/kg/day group) was “one participant each”, the “TEAE hypertrichosis, participants” value ([1]; 6.0-mg/kg/day group) was “two participants” and the “TEAE personality change, participants” value ([1]; 6.0-mg/kg/day group) was “one participant each”. The safety and tolerability ([1]; oral, all doses tested, 24 weeks) was “safe and well-tolerated”, the “serious adverse events reported during vamorolone treatment” value ([2]; Treatment Period 2) was “Three” and the “number of adverse events” value [2, 7] was 44. The “number of adverse events reported as behavioral disorders” value [2, 7] was 6, the “number of adverse events typically associated with corticosteroids” value [2, 7] was 16 and the “reduction in number of adverse events” value [2, 7] was 37%. For the same molecule, the “reduction in number of adverse events typically associated with corticosteroids” value [2, 7] was 60%, the “overall safety and tolerability in clinical studies” value ([2]; in vivo) was “generally safe and well-tolerated” and the “height (z-score), absolute value, Mean” value ([3]; PDN/VAM 6 mg, Week 48) was −0.12. For the same molecule, the BMI mean z-score [3, 6] was 1.32, the growth velocity ([3]; both vamorolone doses, 48 weeks) was “preserved” and the BMI mean z-score ([3]; continuing on 2 mg/kg/day, Week 24) was 1.10. For the same molecule, the BMI mean z-score ([3]; continuing on 2 mg/kg/day, Week 48) was 0.91, the BMI mean z-score ([3]; continuing on 6 mg/kg/day, Week 24) was 1.40 and the BMI mean z-score ([3]; continuing on 6 mg/kg/day, Week 48) was 1.32. For the same molecule, the “change in height Z scores” value ([3]; vamorolone 2.0 mg/kg/day) was “overall stable height change Z scores”, the “change in height Z scores” value ([3]; vamorolone 6.0 mg/kg/day) was “increased growth rate” and the dose-limiting toxicities ([4]; 2 weeks dosing, 0.25-6.0 mg/kg/day) was “no dose-limiting toxicities”. For the same molecule, the drug accumulation ([4]; day 1 vs day 14) was “no drug accumulation”, the “Incidence of Cushingoid” value [5, 8] was 2.6% and the “Incidence of behavior change” value [5, 8] was 0%^2. The Incidence of hypertrichosis/hirsutism [5, 8] was 0%, the “Incidence of weight gain” value [5, 8] was 13.2% and the “Cushingoid features among the 14 probably/definitely related AEs” value ([5]; VBP15-LTE, DSMB report) was 1. The “TEAEs deemed definitely related” value ([5]; VBP15-LTE, DSMB report) was “three”, the “TEAEs deemed possibly related” value ([5]; VBP15-LTE, DSMB report) was 29 and the “TEAEs deemed probably related” value ([5]; VBP15-LTE, DSMB report) was 11. For the same molecule, the “TEAEs deemed remotely related” value ([5]; VBP15-LTE, DSMB report) was 37, the TEAEs deemed unrelated ([5]; VBP15-LTE, DSMB report) was 402 and the “increased appetite among the 14 probably/definitely related AEs” value ([5]; VBP15-LTE, DSMB report) was 2. The “irritability among the 14 probably/definitely related AEs” value ([5]; VBP15-LTE, DSMB report) was 1, the “serious AEs (all deemed unrelated to study drug)” value ([5]; VBP15-LTE, DSMB report) was “three” and the “weight gain among the 14 probably/definitely related AEs” value ([5]; VBP15-LTE, DSMB report) was 10.
